Assay [1] deals with T1, human KEAP1 (N-term, residues 321-609) (Homo sapiens, UniProt Q14145).
T1 construct: human KEAP1 (N-term, residues 321-609) enzyme
The experiment in a line: KEAP1 Kelch Fluorescence Polarization (FP) Assay. As to conditions: inhibition of Kelch domain-NRF2 interaction; 2 nM FITC-labelled NRF2 peptide, 25 nM KEAP1, 1 h at room temperature; compounds below 10 nM cannot be differentiated. Type of assay: binding. How it is done:
Inhibition of the Kelch domain-NRF2 interaction was determined using a fluorescence polarization-based competition assay in a black 384-well microplate. Compounds were tested at a starting concentration of 10 μM serially diluted 1:3 to generate a 12-point dose response curve on the Biomek FX robot. Each well contained 2 nM FITC-labelled NRF2 peptide (FITC-LDEETGEFL-NH2) and 25 nM human KEAP1 (N-term, residues 321-609) enzyme in a final volume of 20 μL of assay buffer (50 mM Tris-HCl pH 8.0, 100 mM NaCl, 5 mM MgCl2, 0.005% Tween-20, 0.005% BSA, 0.5% DMSO) in the presence of varying concentrations of test compound. Unlabelled peptide (LDEETGEFL-NH2) at 50 μM (negative control) and 0.5% DMSO (positive control) was used to determine the assay window.
After 1 h at room temperature, fluorescence polarization (excitation 470 nm/emission 530 nm) was measured using an Envision plate reader. IC50 values were determined by fitting the data to a four parameter logistic fit using XLfit or XE Runner within ActivityBase. The assay limit is such that compounds below 10 nM cannot be differentiated.

In assay [2] the test system is NRF2 mediated gene NAD(P)H:quinone acceptor oxidoreductase 1 (NQO1) in BEAS-2B cells. The experiment in a line: Beas2B NQO1 mRNA Cell Based Assay. The following applies: Homo sapiens, NQO1 mRNA increase compared to vehicle (0.1% DMSO), 24 h. As to the method: The up regulation of the NRF2 mediated gene NAD(P)H:quinone acceptor oxidoreductase 1 (NQO1) was measured using the following assay method: BEAS-2B cells (ATCC CRL-9609) were plated in 96-well clear plates at 20,000 cells/well in 75 μL of cell culture media and incubated overnight (37° C., 5% CO2). On day 2, 25 μL of compound or controls were added to the cells for 24 h. On day 3, the medium was aspirated from the plate and the Cells-to-CT™ 1-Step TaqMan® Kit (Ambion A25603) was used to perform expression analysis directly from cultured cells without RNA purification according to the manufacturer's instructions.
Briefly, cells were washed with ice cold PBS and 22.5 μL of room-temperature DNase/Lysis solution was added to the cells and incubated at room temperature for 5 minutes. To stop the reaction, 2.25 μL of stop solution was added to the cell lysate. The samples were diluted 1:5 using nuclease free water and 2.5 μL transferred into the PCR plate. Real-time PCR was performed using the C-1000 Thermal Cycler (Bio-Rad) using human beta actin as the internal control. The cDNA was amplified with a specific primer for NQO1 using the 1-step RT-PCR master mix (Ambion Cells-to-CT™ 1-Step TaqMan® Kit A25603). The primers/probes sets that were used for amplification of cDNA were obtained from TaqMan Gene Expression Assays (Applied Biosystems). The comparative CT (ΔΔCT) relative quantification method was used to calculate the relative mRNA level of the target gene NQO1 as described in the Applied Biosystems Chemistry Guide. The data are expressed as an increase in target gene mRNA compared to vehicle (0.1% DMSO) control and the EC50 values were determined by fitting the data to a four parameter logistic fit using XLfit or XE Runner within ActivityBase.

T1 sequence (Q14145 321-609): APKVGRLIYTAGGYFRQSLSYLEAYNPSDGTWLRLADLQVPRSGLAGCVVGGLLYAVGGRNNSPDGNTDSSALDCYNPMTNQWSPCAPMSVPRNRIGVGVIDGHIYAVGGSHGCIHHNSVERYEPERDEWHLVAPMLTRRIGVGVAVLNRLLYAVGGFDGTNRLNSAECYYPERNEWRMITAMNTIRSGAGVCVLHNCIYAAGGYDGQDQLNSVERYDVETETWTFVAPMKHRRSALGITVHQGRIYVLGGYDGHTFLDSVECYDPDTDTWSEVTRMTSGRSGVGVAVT

As for `Cn1nnc(COc2c(F)cc(Cl)c3c2[C@@H](CN2CC4(CC4)CC2=O)N(C(=O)[C@@H]2CCCC[C@]2(C)c2nnn[nH]2)CC3)c1C(F)F` [Example 1, 5-(((S)-5-chloro-8-((5-(difluoromethyl)-1-methyl-1H-1,2,3-triazol-4-yl)methoxy)-7-fluoro-2-((1R,2S)-2-methyl-2-(1H-tetrazol-5-yl)cyclohexane-1-carbonyl)-1,2,3,4-tetrahydroisoquinolin-1-yl)methyl)-5-azaspiro[2.4]heptan-6-one], in assay [1], half-maximal inhibition (IC50) was put at 4.8 nM. In assay [2], the EC50 turned out to be 6.8 nM.
Turning to `Cn1nnc(COc2c(F)cc(Cl)c3c2[C@@H](CN2CCOCC2=O)N(C(=O)[C@@H]2CCCC[C@]2(C)C(=O)O)CC3)c1C(F)F` [Example 2, (1S,2R)-2-((S)-5-chloro-8-((5-(difluoromethyl)-1-methyl-1H-1,2,3-triazol-4-yl)methoxy)-7-fluoro-1-((3-oxomorpholino)methyl)-1,2,3,4-tetrahydroisoquinoline-2-carbonyl)-1-methylcyclohexane-1-carboxylic acid], the IC50 in assay [1] came to 5.4 nM. In assay [2], this compound had an EC50 of 1.3 nM.
In turn, `C[C@@H]1CC(=O)N(C[C@@H]2c3c(c(Cl)cc(F)c3OCc3nnn(C)c3C(F)F)CCN2C(=O)[C@@H]2CCCC[C@]2(C)C(=O)O)C1` [Example 3, (1S,2R)-2-((S)-5-chloro-8-((5-(difluoromethyl)-1-methyl-1H-1,2,3-triazol-4-yl)methoxy)-7-fluoro-1-(((R)-4-methyl-2-oxopyrrolidin-1-yl)methyl)-1,2,3,4-tetrahydroisoquinoline-2-carbonyl)-1-methylcyclohexane-1-carboxylic acid] yielded an IC50 in assay [1] of 4.4 nM. For the same compound, the EC50 in assay [2] was determined as 2.1 nM.
Compound `C[C@]1(C(=O)O)CCC[C@H]1C(=O)N1CCc2c(Cl)cc(F)c(OCc3nnn4c3CCCC4)c2[C@H]1CN1CC2(CC2)CC1=O` [Example 4, (1S,2R)-2-((S)-5-chloro-7-fluoro-1-((6-oxo-5-azaspiro[2.4]heptan-5-yl)methyl)-8-((4,5,6,7-tetrahydro-[1,2,3]triazolo[1,5-a]pyridin-3-yl)methoxy)-1,2,3,4-tetrahydroisoquinoline-2-carbonyl)-1-methylcyclopentane-1-carboxylic acid] returned an IC50 in assay [1] of 5 nM. This compound also yielded an EC50 in assay [2] of 0.3 nM.
For `Cc1nnc(COc2c(F)cc(Cl)c3c2[C@@H](CN2CC4(CC4)CC2=O)N(C(=O)[C@@H]2CCCC[C@]2(C)C(=O)O)CC3)n1C` [Example 5, (1S,2R)-2-((S)-5-chloro-8-((4,5-dimethyl-4H-1,2,4-triazol-3-yl)methoxy)-7-fluoro-1-((6-oxo-5-azaspiro[2.4]heptan-5-yl)methyl)-1,2,3,4-tetrahydroisoquinoline-2-carbonyl)-1-methylcyclohexane-1-carboxylic acid], in assay [1], half-maximal inhibition (IC50) required 4.9 nM. This compound registered an EC50 in assay [2] of 0.5 nM.
In the same order, the values of `Cn1cc(COc2c(F)cc(Cl)c3c2[C@@H](CN2CC4(CC4)CC2=O)N(C(=O)[C@@H]2CCCC[C@]2(C)C(=O)O)CC3)nn1` [Example 6, (1S,2R)-2-((S)-5-chloro-7-fluoro-8-((1-methyl-1H-1,2,3-triazol-4-yl)methoxy)-1-((6-oxo-5-azaspiro[2.4]heptan-5-yl)methyl)-1,2,3,4-tetrahydroisoquinoline-2-carbonyl)-1-methylcyclohexane-1-carboxylic acid] are 5 nM and 1 nM.

Source of the values: patent publication US20230167084A1, “TETRAHYDROISOQUINOLINE COMPOUNDS AS NRF2 ACTIVATORS” (C4X Discovery Limited, priority 2020, published 2023).
